Test results: patent US8138351B2, “Treatment of duchenne muscular dystrophy” (Summit Corporation PLC, priority 2007, dated 2012)

System: Utrophin A promoter linked to a luciferase reporter gene (H2K/mdx/Utro A reporter cell line)
Experiment: Luciferase reporter assay (murine H2K cells)
Format: cell-based, mouse
Conditions: final concentration of 10 μM, 48 hrs
Description: 1. Luciferase Reporter Assay (Murine […] Cells) The cell line used for the screen is an immortalized mdx mouse H2K cell line that has been stably transfected with a plasmid containing ≈5 kb fragment of the Utrophin A promoter including the first untranslated exon linked to a luciferase reporter gene (see FIG. 1). Under conditions of low temperature and interferon containing media, the cells remain as myoblasts. These are plated into 96 well plates and cultured in the presence of compound for three days. The level of luciferase is then determined by cell lysis and reading of the light output from the expressed luciferase gene utilising a plate luminometer. The H2K/mdx/Utro A Reporter Cell Line Maintenance The H2K/mdx/Utro A reporter cell line was passaged twice a week until ≦30% confluent. The cells were grown at 33° C. in the presence of 10% CO2. To remove the myoblasts for platting, they were incubated with Trypsin/EDTA until the monolayer started to detach. […] Cells were then lysed in situ following the manufacture's protocols (Promega Steady-Glo Luciferase Assay System (E2520), then counted for 10 seconds using a plate luminometer (Victor1420). Biological activity was assessed using the luciferase reporter assay in murine H2K cells, and is classified as follows: […]

Compound: CCS(=O)(=O)c1ccc2oc(-c3ccc4ccccc4c3)nc2c1 [5-(ethylsulfonyl)-2-(naphthalen-2-yl)benzo[d]oxazole]
- Biological activity, luciferase reporter assay, relative to control: +++ (Between 301% and 400% relative to control)
